Publication PMC9781268, “2-Arylpropionic Acid Pyrazolamides as Cannabinoid CB2 Receptor Inverse Agonists Endowed with Anti-Inflammatory Properties” (Pharmaceuticals, 2022)
Converted amounts (≈) assume the structure as drawn. “Also recorded” adds a separate entry of the source.

Experiments:
[1] = test system: formalin-induced licking behavior in mice; assay: Formalin-induced licking behavior; assay type: in vivo, Swiss Webster mice
Experimental: This assay was performed as described by Hunskaar et al. and adapted by Gomes et al.. This model was characterized by a response that occurred in two phases. The first phase (acute neurogenic pain) occurred during the first 5 min after the intraplantar injection of formalin, and the second phase (inflammatory pain) occurred 15 to 30 min post-injection. Mice were pretreated with oral doses of LASSBio-2265 (11, at 1, 3 or 10 mg/kg, p.o.), morphine (2.5 mg/kg, i.p.), acetylsalicylic acid (ASA, 200 mg/kg, p.o.), or the vehicle (same amount of DMSO used to solubilize the substances + NaCl 0.9%) 60 min before the administration of formalin. […] Then, mice (n = 7 per group) received 20 μL of formalin (2.5% v/v) in the dorsal surface of the left hind paw. The time that the mice spent licking the injected paw was immediately recorded. […] The final volume administered to mice was 0.1 mL.

[2] = target: T1, human CB1 (Homo sapiens, UniProt P21554); assay: Agonist activity, cAMP in CB1-transfected CHO cells; assay type: cell-based; conditions: CB1-expressing CHO cells
T1 construct: host or cells: CHO cells
Experimental: (§1) Negative and blank controls were performed in triplicate with and without the addition of forskolin, respectively.

[3] = Aqueous solubility (thermodynamic, UV spectroscopy); assay type: physicochemical; conditions: aqueous buffer, thermodynamic from solid, phosphate buffer pH 7.4, 37 °C
Experimental: The test was performed based on the absorbance obtained by ultraviolet spectroscopy. The scanning wavelength was determined according to the highest absorbance observed for each compound. Saturated aqueous solution of the analyzed compounds were stirred for 4 h at 37 °C, and then filtered through a 0.45 µm PVDF filter and transferred to a quartz cuvette (10 mm optical path) for reading. Solubility was determined by linear regression based on the equation of the line.

[4] = Parallel artificial membrane permeability assay, blood-brain barrier (PAMPA-BBB)
Experimental: In a 5 mL glass vial, 1 mg of each compound (test or control) was dissolved in 1 mL of ethanol. Then, 500 μL of ethanol and 3.5 mL of PBS at pH 7.4 were added to this solution. […] After 5 min, the donor plate received 180 μL of each compound solution in triplicate. […] The experiments were performed in triplicate with two different analyses (n = 2).

[5] = target: T2, human CB2 (Homo sapiens, UniProt P34972); assay: Inverse agonist activity, cAMP Hunter CHO-K1 CNR2 Gi cells (HitHunter cAMP XS+); assay type: cell-based; set-up: host or cells: cAMP Hunter CHO-K1 CNR2 Gi; conditions: inverse agonism, cAMP increase, 8 μM (EC20) forskolin
Experimental: The cellular functional assay used to evaluate the inverse agonist activity of LASSBio-2265 (11) toward the cannabinoid CB2 receptor was carried out at Eurofins DiscoveryX Corporation USA (https://www.discoverx.com/home) under the study number FR095-0025341-Q (accessed on 02 June 2021) using the GPCR Biosensor Assay. Cell line cAMP Hunter CHO-K1 CNR2 Gi was seeded at a total volume of 20 µL into white-walled, 384-well microplates and incubated at 37 °C prior to testing in the presence of 8 μM (EC20) forskolin. The media was aspirated from the cells and replaced with 15 µL a 2:1 solution of Hanks’ balanced salt solution (HBSS)/10 mM Hepes:cAMP XS+ Ab reagent. Intermediate dilution of the sample stocks was performed to generate 4× samples in assay buffer containing 32 μM forskolin. Then, 5 µL of each 4× sample was added to the cells and incubated at 37 °C for 60 min. […] After signal generation, the microplates were read with a PerkinElmer Envision instrument for chemiluminescent signal detection. Compound activity was analyzed using the CBIS data analysis suite (ChemInnovation, San Diego, CA, USA). Percent activity was calculated using the following formula: […]
(§2) Data obtained from duplicate experiments were fit to concentration-response curves by non-linear regression of the Hill equation. Curve-fit parameters and standard errors were calculated using GraphPad Prism 6.0 (Hercules, CA, USA).

[6] = target: T2, human CB2; assay: Human CB2 (agonist radioligand) receptor binding assay, [3H]-WIN 55212-2; set-up: host or cells: cAMP Hunter CHO-K1 CNR2 Gi; conditions: membranes from CB2-expressing CHO cells, [3H]-WIN55212-2 radioligand, duplicate
Experimental: Assays of binding to CB2 receptors were performed at Eurofins Discovery France (https://www.eurofinsdiscoveryservices.com/) under the study number 100057099 (accessed on 3 June 2021) using the protocol previously published by Munro, Thomas, and Abu-Shaar. Human recombinant CB2 receptors were expressed in CHO cells, and binding was performed with [^3H]-WIN 55212-2, which is a nonselective agonist radioligand. The analysis was performed using software developed at Cerep (Hill software, Santa Barbara, CA, USA) and SigmaPlot 4.0 for Windows (^©1997 by SPSS Inc., Chicago, IL, USA).
as §2

[7] = Distribution coefficient at pH 7.4 (shake-flask, octanol/phosphate buffer); assay type: physicochemical; conditions: 1-octanol/buffer pH 7.4; n-octanol/buffer partitioning at pH 7.4, UV method; read-out: Log D7.4
Experimental: The assay was performed based on the shake-flask method and the absorbance readings by ultraviolet spectroscopy at maximum absorbance wavelength. To a Falcon tube with a capacity of 15 mL, 5 mL of buffer solution at pH 7.4 and 5 mL of 1-octanol were added. Then, the tested compounds were added at defined concentrations of approximately 10–15 µM, and the mixtures were homogenized via vigorous manual shaking. Next, the Falcon tubes were stirred for 4 h at 37 °C, and the experiment was carried out in triplicate for each compound. Subsequently, each sample was placed in a separatory funnel, and the collected aqueous phase was filtered through a 0.45 µm PVDF filter and transferred to a quartz cuvette (10 mm optical path) for UV/Vis reading. The distribution coefficient of each compound at pH 7.4 was determined by linear regression using the straight-line equation [33].

[8] = test system: plasma carboxylesterases; assay: Plasma stability against enzymatic hydrolysis; assay type: in vitro ADME, Wistar rats; conditions: rat plasma, determined after 240 min
Experimental: For the evaluation of plasma stability against plasma carboxylesterases, a pool of plasma male Wistar rats weighing 300–360 g kept in the vivarium of the Laboratory of Biochemical and Molecular Pharmacology-UFRJ was used. Blood was collected with heparin and kept on ice. Then, the samples were centrifuged at 2000 rpm for 15 min at 20 °C, with subsequent removal of the plasma. The plasma was then diluted 80% (v/v) with phosphate buffer (PBS; pH = 7.4) at 37 °C. The experiments performed in this work were approved by the Ethics Committee on the Use of Animals in Scientific Experiments of the Health Sciences Center of the Federal University of Rio de Janeiro (Number 028/15). The biological matrix was incubated at 37 °C under agitation for 30, 60, 120, and 240 min. The degree of degradation was evaluated by HPLC-PDA with methyl 1,1′bisphenyl-4-carboxylate as an internal standard (PI), using an isocratic mobile phase of 70%:30% acetonitrile:water (0–15 min), an injection volume of 20 μL, a flow rate of 1 mL/min, and detection at 254 nm.

[9] = Parallel artificial membrane permeability assay, gastrointestinal (PAMPA-GI / PAMPA-GTI)
Experimental: A 10 mM solution of each compound (tests and controls) was prepared in DMSO. Then, in a 5 mL glass flask, 250 µL of the freshly prepared solution was homogenized with 4750 µL of PBS at pH 6.6 to a concentration of 10 mM. The solution was then filtered in a 0.45 µm PVDF filter and set aside. Then, 180 µL of a solution of phosphate-bufffered saline (PBS, pH 7.4):DMSO (95:5) was added to the wells of the receptor plate, and 5 µL of the soy L-α-phosphatidylcholine lipid solution (20 mg/mL in dodecane) was added to the wells of the donor plate. After 5 min, the donor plate received 180 µL of the reserved solution containing each compound. […] After this period, the donor plate was removed, and the contents of the recipient plate were transferred to a UV reading plate and read (SpectraMax 5, Molecular Devices) at the maximum wavelengths for each compound. The blank was prepared with 180 µL of PBS solution (pH 7.4):DMSO (95:5). The experiments were carried out in triplicate with two different analyses (n = 2) [37]. The optical density values obtained from the readings at each selected wavelength for each of the compounds were analyzed by comparison with the values of the controls. These values were used to determine the absorbed fraction (Fa %) using the JMP® program version 10.0.

[10] = target: T2, human CB2; assay: Agonist activity, cAMP in CB2-transfected CHO cells; assay type: cell-based; set-up: host or cells: CHO cells; conditions: CB2-expressing CHO cells, from 1 μM
Experimental: as §1

T2 sequence (P34972 whole entry): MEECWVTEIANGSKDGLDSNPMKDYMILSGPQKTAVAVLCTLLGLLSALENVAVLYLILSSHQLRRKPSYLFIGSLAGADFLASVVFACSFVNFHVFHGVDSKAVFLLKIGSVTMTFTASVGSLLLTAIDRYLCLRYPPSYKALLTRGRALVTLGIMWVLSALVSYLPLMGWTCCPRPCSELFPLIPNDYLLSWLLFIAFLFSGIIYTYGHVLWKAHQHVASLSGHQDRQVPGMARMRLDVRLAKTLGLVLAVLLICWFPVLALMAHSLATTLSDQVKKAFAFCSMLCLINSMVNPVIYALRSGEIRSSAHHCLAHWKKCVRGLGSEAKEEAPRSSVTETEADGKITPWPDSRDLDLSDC
T1 sequence (P21554 whole entry): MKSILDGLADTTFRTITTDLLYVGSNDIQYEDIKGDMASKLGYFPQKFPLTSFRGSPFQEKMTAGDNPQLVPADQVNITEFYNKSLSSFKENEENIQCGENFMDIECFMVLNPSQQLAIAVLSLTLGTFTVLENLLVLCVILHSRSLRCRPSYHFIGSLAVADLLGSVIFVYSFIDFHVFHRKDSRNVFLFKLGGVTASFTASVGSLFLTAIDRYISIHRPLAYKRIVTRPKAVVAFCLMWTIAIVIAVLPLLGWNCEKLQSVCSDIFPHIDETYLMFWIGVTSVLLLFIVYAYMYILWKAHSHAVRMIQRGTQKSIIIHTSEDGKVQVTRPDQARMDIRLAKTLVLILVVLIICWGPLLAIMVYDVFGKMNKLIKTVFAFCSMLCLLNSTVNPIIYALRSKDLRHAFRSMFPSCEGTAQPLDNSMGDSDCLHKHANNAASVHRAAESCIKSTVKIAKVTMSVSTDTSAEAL

For `Cc1c(N(C)C(=O)C(C)c2ccc(-c3ccccc3)c(F)c2)c(=O)n(-c2ccccc2)n1C` (centres unmarked) [Compound 11, N-(1,5-dimethyl-3-oxo-2-phenyl-2,3-dihydro-1H-pyrazol-4-yl)-2-(2-fluoro-[1,1’-biphenyl]-4-yl)-N-methylpropanamide], the “Antinociceptive effect in the formalin test” value ([1]; 3 mg/kg) was “decreased pain behaviour”, the “Analgesia in the second (late, inflammatory) phase of the formalin test” value ([1]; LASSBio-2265 1, 3 and 10 mg/kg p.o., morphine 2.5 mg/kg, ASA 200 mg/kg, listed as LASSBio-2265 (11)) was “remarkable analgesic activity in the late inflammatory phase; also recorded: comparable to both morphine and ASA” and the “Analgesia in the first phase of the formalin test” value ([1]; morphine 2.5 mg/kg i.p., ASA 200 mg/kg p.o., LASSBio-2265 1, 3 and 10 mg/kg p.o., compared to vehicle) was “only morphine (2.5 mg/kg) promoted significant analgesia”. For the same molecule, the “Effect on cAMP concentration” value [2] was “no effect was observed”, the solubility at 4 h [3] was 68.5 µM (≈ 30.4 µg/mL) and the Papp at 2.75 h, 0.2 mg/mL ([4]; PAMPA, pH 7.4) was 92.6 nm/s. For the same molecule, the Classification ([4]; Table S2, PAMPA-BBB) was “CNS +”, the Pe experimental ([4]; Table S2, PAMPA-BBB) was 9,26 10-6 cm s-1 and the “PAMPA-BBB Score” value ([4]; porcine brain lipid membrane) was “CNS+ (CNS+ (high predicted BBB permeability) Pe > 4.0 × 10^−6 cm/s)”. The Emax ([5]; CHO-K1, read-out: Emax (efficacy, % of the maximum effect)) was 63%, the EC50 [5] was 0.369 ± 0.03 µM and the Ki [6] was 16 µM. The logD [7] was 1.98, the “Plasma Metabolization Rate” value [8] was 13.04% and the Papp at 8 h, 0.5 mM ([9]; PAMPA) was 102 nm/s. For the same molecule, the Classification ([9]; Table S1, PAMPA-GTI) was “HIGH (high intestinal permeability: >70%)”, the “Pe Exp” value ([9]; Table S1, PAMPA-GTI) was 10,18 10-6 cm/s and the Fa ([9]; Table S1, PAMPA-GTI, absorbed fraction) was 97,91%. For the same molecule, the “PAMPA-GI Fa Exp” value ([9]; absorbed fraction, soybean L-α-phosphatidylcholine membrane) was 97.91% and the “Effect on cAMP concentration” value [10] was “important effect starting from 1 μM”.
